# In US9284325B2, “Spectinamides as anti-tuberculosis agents” (UNIVERSITY OF TENNESSEE RESEARCH FOUNDATION, priority 2009, dated 2016):
# Counter-ions that a name gives are not always drawn. Like-named read-outs stand apart in the source and are kept apart here.
# Experiments:
# P. aeruginosa PAO1 = experiment: MIC determination by microbroth dilution; format: cell-based, Pseudomonas aeruginosa; settings: for MIC: Pseudomonas aeruginosa
# [1] = test system: Proteus vulgaris ATCC 33420; experiment: MIC determination by microbroth dilution; format: cell-based; settings: for MIC: ATCC33420
# [2] = test system: Klebsiella pneumoniae ATCC 33495; experiment: MIC determination by microbroth dilution; format: cell-based; settings: for MIC: ATCC33495
# [3] = test system: Acinetobacter baumannii ATCC 19606; experiment: MIC determination by microbroth dilution; format: cell-based; settings: for MIC: ATCC19606
# [4] = test system: Strep. pneumoniae DAW27 or strain R6; experiment: MIC determination by microbroth dilution; format: cell-based, Streptococcus pneumoniae; settings: Strep. pneumoniae DAW27 or strain R6 (for 1443-1544); for MIC: Streptococcus pneumoniae, read-out: MIC S. pneumoniae
# B. anthracis Sterne 34F2 = experiment: microbe, parasite or virus in culture; format: cell-based, Bacillus anthracis; settings: for MIC: Bacillus anthracis, STERNE34F2, read-out: MIC B. anthracis 34F2
# [5] = test system: Strenotrophomonas maltophilia ATCC 13637; experiment: MIC determination by microbroth dilution; format: cell-based
# [6] = test system: Proteus mirabilis ATCC 25933; experiment: MIC determination by microbroth dilution; format: cell-based; settings: for MIC: ATCC25933
# E. coli K12 ΔtolC = experiment: microbe, parasite or virus in culture; format: cell-based; settings: for MIC: Escherichia coli, read-out: MIC E. coli K12 ΔtolC
# [7] = test system: S. aureus 8325 or strain ATCC 29213; experiment: MIC determination by microbroth dilution; format: cell-based, Staphylococcus aureus; settings: S. aureus 8325 or strain ATCC 29213 (for 1471-1544); for MIC: Staphylococcus aureus, ATCC29213
# [8] = test system: Strep. pyogenes ATCC 700294; experiment: MIC determination by microbroth dilution; format: cell-based, Streptococcus pyogenes; settings: for MIC: Streptococcus pyogenes, ATCC700294, read-out: MIC S. pyogenes
# M. tuberculosis H37Rv = experiment: MIC determination by microbroth dilution, anti-tuberculosis activity; format: cell-based, Mycobacterium tuberculosis
# E. faecalis ATCC 33186 = experiment: MIC determination by microbroth dilution; format: cell-based, Enterococcus faecalis; settings: for MIC: Enterococcus faecalis, ATCC33186
# E. coli ribosomes = format: biochemical; settings: for relative inhibitory activity on luciferase production: tested at 0.66 and 6.6 μM, FIG. 5; for IC50, 50% inhibition of luciferase biosynthesis in S30 assay: E. coli S30 transcription/translation assay
# E. coli K12 = experiment: MIC determination by microbroth dilution; format: cell-based, Escherichia coli; settings: for MIC: Escherichia coli, K12
# [9] = test system: Burkholderia cepacia ATCC 25416; experiment: MIC determination by microbroth dilution; format: cell-based; settings: for MIC: ATCC25416, read-out: MIC B. cepcia
# [10] = Mycobacterium tuberculosis, H37RV, 168 h, read-out: MIC
Compound,MIC (P. aeruginosa PAO1) [µg/mL],MIC [1] [µg/mL],MIC [2] [µg/mL],MIC [3] [µg/mL],MIC [4] [µg/mL],MIC (B. anthracis Sterne 34F2) [µg/mL],MIC [5] [µg/mL],MIC [6] [µg/mL],MIC (E. coli K12 ΔtolC) [µg/mL],MIC [7] [µg/mL],MIC [8] [µg/mL],MIC (M. tuberculosis H37Rv; [10]) [µg/mL],MIC (E. faecalis ATCC 33186) [µg/mL],"IC50, 50% inhibition of luciferase biosynthesis in S30 assay (E. coli ribosomes) [µg/mL]",MIC (E. coli K12) [µg/mL],MIC [9] [µg/mL],also measured
3′-Dihydro-3′-deoxy-4(R)-dodecylamino spectinomycin Trihydrochloride [Compound 1421],–,–,–,–,–,–,–,–,–,–,–,–,–,–,–,–,"MIC P. aer. (P. aeruginosa PAO1): >200 µg/mL; MIC P. vul [1]: >200 µg/mL; MIC K. pneu. [2]: >200 µg/mL; MIC A. bau. [3]: 50 µg/mL; MIC S. pneumoniae [4]: 200 µg/mL; MIC B. anthracis 34F2 (B. anthracis Sterne 34F2): 200 µg/mL; MIC S. mal [5]: 12.5 µg/mL; MIC P. mir [6]: >200 µg/mL; MIC E. coli K12 ΔtolC (E. coli K12 ΔtolC; tolC knockout strain, defective multi-drug efflux pump): 50 µg/mL; MIC S. aureus [7]: 200 µg/mL; MIC S. pyogenes [8]: 50 µg/mL; MIC (M. tuberculosis H37Rv): 25 µg/mL; MIC E. faecalis (E. faecalis ATCC 33186): 200 µg/mL; relative inhibitory activity on luciferase production (E. coli ribosomes): less active than 1329; MIC E. coli K12 (E. coli K12; E. coli K12): 200 µg/mL; MIC B. cepcia [9]: 50 µg/mL"
"CN[C@@H]1[C@H](O)[C@H](NC)C2O[C@]3(O)C(OC2[C@H]1O)O[C@H](C)C[C@H]3NC(=O)c1cnccn1 (stereo partly drawn) [Compound 1453, 3′-Dihydro-3′-deoxy-4(R)-(pyrazine-2-yl)carboxylicamino spectinomycin tetrahydrobromide]",> 200,> 200,> 200,> 200,25,> 200,> 200,> 200,200,> 200,25,> 200,> 200,1.04,> 200,> 200,–
"CN[C@@H]1[C@H](O)[C@H](NC)C2O[C@]3(O)C(OC2[C@H]1O)O[C@H](C)C[C@H]3NC(=O)Cc1ccncc1 (stereo partly drawn) [Compound 1413, 3′-Dihydro-3′-deoxy-4(R)-(pyridin-4-yl)acetylamino spectinomycin Dihydrochloride]",> 200,> 200,> 200,> 200,> 200,200,> 200,> 200,50,50,200,100,> 200,1.92,200,> 200,–
"CN[C@@H]1[C@H](O)[C@H](NC)C2O[C@]3(O)C(OC2[C@H]1O)O[C@H](C)C[C@H]3NC(=O)Cc1ccc(F)cc1 (stereo partly drawn) [Compound 1367, 3′-Dihydro-3′-deoxy-4(R)-(4-fluoro-phenyl)-acetylamino spectinomycin Dihydrochloride]",100,> 200,> 200,> 200,50,50,> 200,> 200,50,50,50,3.1,200,1.05,200,> 200,–
"CN[C@@H]1[C@H](O)[C@H](NC)C2O[C@]3(O)C(OC2[C@H]1O)O[C@H](C)C[C@H]3NC(=O)Cc1cccnc1 (stereo partly drawn) [Compound 1368, 3′-Dihydro-3′-deoxy-4(R)-(pyridin-3-yl)acetylamino spectinomycin Dihydrochloride]",> 200,> 200,> 200,> 200,> 200,6.25,> 200,> 200,> 200,50,> 200,12.5,> 200,1.08,100,> 200,–
"CN[C@@H]1[C@H](O)[C@H](NC)C2O[C@]3(O)C(OC2[C@H]1O)O[C@H](C)C[C@H]3NC(=O)CCc1cccnc1 (stereo partly drawn) [Compound 1299, 3′-Dihydro-3′-deoxy-4(R)-(3-pyridin-3-yl)propionylamino spectinomycin Dihydrochloride]",> 200,> 200,> 200,> 200,200,200,> 200,> 200,200,200,200,25,> 200,0.97,> 200,> 200,–
"CN[C@@H]1[C@H](O)[C@H](NC)C2O[C@]3(O)C(OC2[C@H]1O)O[C@H](C)C[C@H]3NCc1ccco1 (stereo partly drawn) [Compound 1422, 3′-Dihydro-3′-deoxy-4(R)-furan-2yl-methylamino spectinomycin Trihydrochloride]",25,> 200,> 200,> 200,50,12.5,> 200,> 200,12.5,25,200,200,12.5,–,25,> 200,relative inhibitory activity on luciferase production (E. coli ribosomes): inhibited well
"CN[C@@H]1[C@H](O)[C@H](NC)C2O[C@]3(O)C(OC2[C@H]1O)O[C@H](C)C[C@H]3NC(=O)Cc1ccccc1 (stereo partly drawn) [Compound 1398, 3′-Dihydro-3′-deoxy-4(R)-phenylacetylamino spectinomycin Dihydrochloride]",100,> 200,> 200,> 200,100,100,> 200,> 200,200,100,50,6.1,> 200,0.78,> 200,> 200,–
"CN[C@@H]1[C@H](O)[C@H](NC)C2O[C@]3(O)C(OC2[C@H]1O)O[C@H](C)C[C@H]3NC(=O)Cc1c[nH]cn1 (stereo partly drawn) [Compound 1466, 3′-Dihydro-3′-deoxy-4(R)-(1H-imidazol-4-yl)acetylamino spectinomycin tetradrobromide]",> 200,> 200,> 200,> 200,12.5,> 200,> 200,> 200,50,> 200,25,6.25,> 200,0.57,100,> 200,–
